Measured values published in patent US5126356A, “Piperidine compounds” (Adir et Compagnie, priority 1989, dated 1992).

Assays:
type L calcium channels = target: T1, type L calcium channels (Oryctolagus cuniculus, UniProt P07293); assay: Binding: displacement of [3H] PN 200-110 at the Ca2+ channel
T1 construct: microsomal fractions enriched with type L calcium channels; from tissue; host or cells: microsomal fractions

type L Ca^2+ channel = target: T2, type L Ca^2+ channel (Rattus norvegicus, UniProt P22002); assay: Inhibition of 45Ca2+ influx through the Ca2+ channel in A7 r5 cells; type: cell-based
T2 construct: cell lines from the aorta of newly born rats; host or cells: A7 r5
T2 sequence (P22002 whole entry): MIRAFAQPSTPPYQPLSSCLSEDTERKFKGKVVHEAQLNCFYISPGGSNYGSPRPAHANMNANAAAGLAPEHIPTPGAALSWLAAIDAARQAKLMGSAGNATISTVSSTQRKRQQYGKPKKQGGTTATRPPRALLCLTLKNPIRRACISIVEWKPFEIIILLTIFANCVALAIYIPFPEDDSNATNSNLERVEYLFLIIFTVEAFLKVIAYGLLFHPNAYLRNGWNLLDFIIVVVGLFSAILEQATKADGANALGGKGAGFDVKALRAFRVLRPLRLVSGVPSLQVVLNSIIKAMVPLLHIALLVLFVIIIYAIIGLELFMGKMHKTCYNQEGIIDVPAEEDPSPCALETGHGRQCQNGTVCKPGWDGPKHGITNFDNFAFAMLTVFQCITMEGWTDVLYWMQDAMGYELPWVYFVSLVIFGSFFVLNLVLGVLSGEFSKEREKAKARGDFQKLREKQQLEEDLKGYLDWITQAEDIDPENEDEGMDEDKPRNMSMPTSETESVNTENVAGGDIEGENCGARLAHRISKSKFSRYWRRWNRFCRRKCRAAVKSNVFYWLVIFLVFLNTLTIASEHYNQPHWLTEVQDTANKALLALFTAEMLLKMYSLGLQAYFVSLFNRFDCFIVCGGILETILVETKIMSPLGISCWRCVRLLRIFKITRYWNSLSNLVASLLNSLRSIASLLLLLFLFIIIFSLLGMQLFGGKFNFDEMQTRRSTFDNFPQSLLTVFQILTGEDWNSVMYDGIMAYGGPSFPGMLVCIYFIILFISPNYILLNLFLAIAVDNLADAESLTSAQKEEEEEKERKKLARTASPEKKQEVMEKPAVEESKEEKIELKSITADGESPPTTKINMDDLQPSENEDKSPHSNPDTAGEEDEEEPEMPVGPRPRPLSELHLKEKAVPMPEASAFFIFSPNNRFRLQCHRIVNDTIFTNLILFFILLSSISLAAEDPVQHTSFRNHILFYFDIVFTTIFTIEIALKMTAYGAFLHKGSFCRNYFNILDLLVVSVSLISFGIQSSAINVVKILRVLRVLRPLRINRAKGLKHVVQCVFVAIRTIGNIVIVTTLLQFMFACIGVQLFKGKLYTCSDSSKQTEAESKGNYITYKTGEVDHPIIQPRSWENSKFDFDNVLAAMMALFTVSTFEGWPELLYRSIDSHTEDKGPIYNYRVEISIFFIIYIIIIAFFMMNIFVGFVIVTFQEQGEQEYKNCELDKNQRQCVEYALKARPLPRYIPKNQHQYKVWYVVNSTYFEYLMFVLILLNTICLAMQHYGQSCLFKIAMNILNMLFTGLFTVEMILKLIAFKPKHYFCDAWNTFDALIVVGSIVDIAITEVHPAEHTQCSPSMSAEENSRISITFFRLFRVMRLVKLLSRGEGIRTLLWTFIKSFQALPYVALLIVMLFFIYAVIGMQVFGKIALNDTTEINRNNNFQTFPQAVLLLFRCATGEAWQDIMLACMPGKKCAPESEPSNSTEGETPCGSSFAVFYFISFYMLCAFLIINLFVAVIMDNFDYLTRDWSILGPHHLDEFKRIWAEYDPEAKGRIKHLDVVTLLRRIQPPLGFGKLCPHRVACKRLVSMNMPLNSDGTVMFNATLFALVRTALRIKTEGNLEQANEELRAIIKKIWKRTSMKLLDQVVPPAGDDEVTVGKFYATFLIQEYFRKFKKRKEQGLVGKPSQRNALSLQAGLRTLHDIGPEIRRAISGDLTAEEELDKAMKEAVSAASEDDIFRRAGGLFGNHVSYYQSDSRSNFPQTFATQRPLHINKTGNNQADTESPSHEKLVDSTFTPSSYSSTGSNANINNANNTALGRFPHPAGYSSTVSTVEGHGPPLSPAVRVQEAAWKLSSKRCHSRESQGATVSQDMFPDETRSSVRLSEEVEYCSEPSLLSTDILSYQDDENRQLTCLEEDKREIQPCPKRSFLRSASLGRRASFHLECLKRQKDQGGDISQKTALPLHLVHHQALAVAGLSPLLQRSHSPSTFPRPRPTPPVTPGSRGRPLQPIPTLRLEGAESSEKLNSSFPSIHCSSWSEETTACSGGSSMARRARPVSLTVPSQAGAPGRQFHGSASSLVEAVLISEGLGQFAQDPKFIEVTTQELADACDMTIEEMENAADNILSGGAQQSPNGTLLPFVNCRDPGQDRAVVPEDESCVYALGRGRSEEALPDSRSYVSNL
T2 sequence (P54290 25-945 partner limits assumed): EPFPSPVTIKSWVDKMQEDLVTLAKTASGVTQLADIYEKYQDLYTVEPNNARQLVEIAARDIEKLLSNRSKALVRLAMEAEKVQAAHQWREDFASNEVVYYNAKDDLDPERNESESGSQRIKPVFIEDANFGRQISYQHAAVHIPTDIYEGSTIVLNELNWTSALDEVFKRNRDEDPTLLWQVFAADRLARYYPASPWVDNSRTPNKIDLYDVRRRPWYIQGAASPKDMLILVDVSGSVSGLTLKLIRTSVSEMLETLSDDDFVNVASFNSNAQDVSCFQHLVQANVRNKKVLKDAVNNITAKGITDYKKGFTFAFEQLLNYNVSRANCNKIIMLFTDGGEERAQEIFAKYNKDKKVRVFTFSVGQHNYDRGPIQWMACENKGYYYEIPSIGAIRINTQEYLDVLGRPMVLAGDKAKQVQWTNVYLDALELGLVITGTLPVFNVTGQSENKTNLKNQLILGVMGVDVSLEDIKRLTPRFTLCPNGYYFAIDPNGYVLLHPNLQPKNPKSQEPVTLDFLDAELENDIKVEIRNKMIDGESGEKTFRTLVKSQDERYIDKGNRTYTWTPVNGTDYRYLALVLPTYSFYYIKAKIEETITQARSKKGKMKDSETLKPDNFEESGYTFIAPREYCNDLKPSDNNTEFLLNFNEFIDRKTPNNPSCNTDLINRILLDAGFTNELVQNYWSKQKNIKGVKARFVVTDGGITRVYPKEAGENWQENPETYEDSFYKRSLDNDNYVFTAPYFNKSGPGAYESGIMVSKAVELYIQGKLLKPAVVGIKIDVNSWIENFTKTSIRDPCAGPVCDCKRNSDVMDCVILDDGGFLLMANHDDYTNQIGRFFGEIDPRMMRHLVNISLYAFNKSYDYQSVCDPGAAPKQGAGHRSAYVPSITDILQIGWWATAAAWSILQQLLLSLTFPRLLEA
T2 sequence (P54290 946-1091 partner limits assumed): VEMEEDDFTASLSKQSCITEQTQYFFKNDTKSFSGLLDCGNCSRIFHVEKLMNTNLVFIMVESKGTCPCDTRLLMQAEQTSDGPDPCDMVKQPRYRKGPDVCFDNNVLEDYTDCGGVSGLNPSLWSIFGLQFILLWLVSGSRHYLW

5HT1A = target: T3, 5HT1A (Homo sapiens, UniProt P08908); assay: Binding to neurotransmitter receptors: 5HT1A ([3H] 8 OH DPAT); details: read-out: K0.5
T3 sequence (P08908 1-422): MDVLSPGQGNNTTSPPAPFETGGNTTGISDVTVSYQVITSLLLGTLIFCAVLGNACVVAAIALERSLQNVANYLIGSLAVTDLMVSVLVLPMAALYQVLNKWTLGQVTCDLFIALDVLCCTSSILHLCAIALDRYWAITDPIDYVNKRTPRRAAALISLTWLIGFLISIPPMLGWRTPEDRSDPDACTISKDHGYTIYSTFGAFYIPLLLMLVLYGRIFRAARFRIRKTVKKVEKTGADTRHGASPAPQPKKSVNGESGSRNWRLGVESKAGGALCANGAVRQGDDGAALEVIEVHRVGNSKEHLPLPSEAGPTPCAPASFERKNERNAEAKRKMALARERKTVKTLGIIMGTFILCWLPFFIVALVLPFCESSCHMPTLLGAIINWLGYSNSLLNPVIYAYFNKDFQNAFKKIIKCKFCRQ

5HT2 = 5HT2 (Homo sapiens, UniProt P28223); assay: Binding to neurotransmitter receptors: 5HT2 ([3H] Ketanserine)
5HT2, sequence (P28223 whole entry, species assumed): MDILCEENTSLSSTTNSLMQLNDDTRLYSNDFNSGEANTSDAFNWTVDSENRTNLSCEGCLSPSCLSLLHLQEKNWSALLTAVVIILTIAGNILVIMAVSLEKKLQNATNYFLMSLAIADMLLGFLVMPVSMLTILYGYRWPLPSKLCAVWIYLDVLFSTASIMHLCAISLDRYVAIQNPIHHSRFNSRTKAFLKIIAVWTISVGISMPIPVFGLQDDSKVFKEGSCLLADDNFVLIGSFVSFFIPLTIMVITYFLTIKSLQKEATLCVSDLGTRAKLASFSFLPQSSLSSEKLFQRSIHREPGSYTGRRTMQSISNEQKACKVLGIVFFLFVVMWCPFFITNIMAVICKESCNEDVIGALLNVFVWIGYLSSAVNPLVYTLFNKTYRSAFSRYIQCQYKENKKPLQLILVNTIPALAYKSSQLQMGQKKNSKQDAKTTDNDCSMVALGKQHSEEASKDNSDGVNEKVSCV

Alpha adrenergic α1 = assay: Binding to neurotransmitter receptors: alpha1 adrenergic ([3H] Prazosin); details: α1, [3H] Prazosin; read-out: K0.5
Alpha adrenergic α2 = assay: Binding to neurotransmitter receptors: alpha2 adrenergic ([3H] Rauwolscine); details: α2, [3H] Rauwolscine; read-out: K0.5
Dopamine D1 = Dopamine D1 (Homo sapiens, UniProt P21728); assay: Binding to neurotransmitter receptors: D1 ([3H] SCH 23390); details: read-out: K0.5
Dopamine D1, sequence (P21728 whole entry): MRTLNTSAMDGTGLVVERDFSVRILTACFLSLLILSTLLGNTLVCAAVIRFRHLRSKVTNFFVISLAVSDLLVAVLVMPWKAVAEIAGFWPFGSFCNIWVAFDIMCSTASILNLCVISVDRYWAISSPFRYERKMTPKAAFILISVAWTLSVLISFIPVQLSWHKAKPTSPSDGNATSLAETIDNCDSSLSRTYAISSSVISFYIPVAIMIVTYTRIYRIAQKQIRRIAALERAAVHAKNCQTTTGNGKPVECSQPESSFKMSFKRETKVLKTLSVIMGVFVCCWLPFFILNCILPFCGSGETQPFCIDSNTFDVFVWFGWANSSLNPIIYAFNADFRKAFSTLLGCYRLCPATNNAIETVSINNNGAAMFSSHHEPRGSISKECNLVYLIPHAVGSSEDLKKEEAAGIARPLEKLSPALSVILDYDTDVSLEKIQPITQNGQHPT

Dopamine D2 = Dopamine D2 (Homo sapiens, UniProt P14416); assay: Binding to neurotransmitter receptors: D2 ([3H] 205 501); details: read-out: K0.5
Dopamine D2, sequence (P14416 whole entry): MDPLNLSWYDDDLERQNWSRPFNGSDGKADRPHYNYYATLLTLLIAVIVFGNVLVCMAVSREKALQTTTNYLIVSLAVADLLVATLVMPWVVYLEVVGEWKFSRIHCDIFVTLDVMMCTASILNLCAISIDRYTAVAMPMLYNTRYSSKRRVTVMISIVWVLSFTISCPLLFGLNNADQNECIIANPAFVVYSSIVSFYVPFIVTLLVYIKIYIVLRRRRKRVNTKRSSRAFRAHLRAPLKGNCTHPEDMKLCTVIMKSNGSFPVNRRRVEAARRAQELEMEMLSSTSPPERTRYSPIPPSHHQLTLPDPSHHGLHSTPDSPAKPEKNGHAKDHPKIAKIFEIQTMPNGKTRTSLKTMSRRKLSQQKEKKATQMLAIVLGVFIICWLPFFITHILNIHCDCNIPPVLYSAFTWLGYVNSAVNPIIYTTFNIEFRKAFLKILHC

cardiac cells = assay: Protection of cardiac cells from necrosis induced by intracellular acidosis (αHBDH release); type: cell-based, rat
Protocol: a) Cardiac cells: the cardiac cells are prepared from the hearts of newly born (3 days) Wistar rats in accordance with the technique of RENAUD JF., MEAUX JP., ROMEY G., SCHMID A., LAZDUNSKI M., Activation of the voltage-dependent Ca^2+ channels in rat heart cells by dihydropyridine derivative--Biochem. Biophys. Res. Commun., 125, 405-412 (1984).
The cardiomyocytes are isolated from the ventricles by enzymatic dissociation and cultured at 185,000 cells/cm^2. The cells are kept at 37° C. under an air/CO2 atmosphere (95 V/5 V) saturated with water. The cardiomyocytes are used between the 3rd and 8th day following culturing.
Intracellular acidosis is induced in accordance with the conditions published by RENAUD JF., Internal pH Na^+ and Ca^2+ regulation by trimetazidine during cardiac cell acidosis. Cardiovasc. Drugs and Ther., 1, 667-686 (1988) in the presence or absence of the products to be tested. Cellular necrosis is evaluated by measuring by spectrophotometry using the Boerhinger 124800 kit the kinetics of the release of a cytosolic enzyme α-hydroxybutyrate dehydrogenase (αHBDH) into the extracellular medium.
The signal measured corresponds to the amplitude of the necrosis induced by the acidosis. The values are the means ±SD. The number of experiments is indicated in parentheses.

slow calcium channels = target: T4, slow calcium channels (Rattus norvegicus, UniProt P22002); assay: Electrophysiology, whole cell patch clamp on A7 r5, slow calcium entry flow; type: cell-based
T4 construct: cell lines from the aorta of newly born rats; host or cells: A7 r5
T4 sequence (P22002 whole entry): as the sequence (P22002 whole entry) above
T4 sequence (P54290 25-945 partner limits assumed): as the sequence (P54290 25-945 partner limits assumed) above
T4 sequence (P54290 946-1091 partner limits assumed): as the sequence (P54290 946-1091 partner limits assumed) above
Protocol: b) A7 r5 : cell lines from the aorta of newly born rats (ATCC No. CRL 1444), cultivated under the conditions indicated by the American Type Culture Collection (ATCC).
The studies were carried out on the A7 r5 cell line using the whole cell patch-clamp technique described by HAMILL O., MARTY A., WEHER E., SAKMANN B., SIGWORTH F. F., Improved patch clamp techniques for high resolution current recording from cells and cell from membrane patches. Pflugers Arch., 391, 85-100 (1981).

beagle dogs = assay: Anti-ischaemic activity, Protocol 2: moderate coronary stenosis plus auricular pacing in anaesthetised beagle dogs; type: in vivo, dog; details: Pacing 2 minutes, 1 mg/kg i.v.
Protocol: The studies are carried out on beagle dogs weighing from 9 to 12 kg which have been anaesthetised with pentobarbital sodium 30 mg/kg i.v., intubated and ventilated, and subjected to a thoracotomy at the 5th left intercostal space.
An electromagnetic ring connected to a Gould SP 2202 electromagnetic flow meter is placed around the circumflex branch of the left coronary artery, and an inflatable balloon is placed just downstream of that ring for the production of coronary stenoses under the control of the coronary output.
Piezoelectric crystals (5 MHz) connected to a Triton sonomicrometer are implanted in the subendocardium of the left ventricular wall, in an area that is to become ischaemic, for measuring local myocardial contractility; epicardial electrodes are placed in the same area for recording the epicardial electrocardiogram.
Two electrodes are sewn at the right auricle in the region of the sinoauricular node for the protocols including pacing sequences. […]
Myocardial contractility is evaluated by the proportion of systolic shortening of the lengths of the segments between the piezoelectric crystals.
Hypokinesia in the ischaemic area is expressed as percentage variation relative to the contractility measured in the control period.
Modification of the epicardial ECG in the ischaemic area consists in raising the epicardial ST segment measured in millivolts (mV).

[1] = test system: neurotransmitter receptors (5HT, α,β); assay: Effect on neurotransmitter receptors (panel as a whole); type: binding; details: exception of the dopaminergic receptors
Protocol: The competition experiments between the different radioligands and the reference molecules are carried out under the standard binding conditions according to O'BRIEN R. A., Receptor binding in drug research. In: Clinical Pharmacology, vol. 5, DEKKER M. Inc., New York and Basle (1986). In all cases, after the required linkage time, the bound radioactivity is separated from the free component by in vacuo filtration on a GF/C filter.

COc1ccc(CSC2CCN(CC=Cc3ccccc3)CC2)c(OC)c1OC [Example 1, 4-(2,3,4-trimethoxybenzylthio)-1-cinnamylpiperidine]
binding to the slow Ca2+ channel (in words) (type L calcium channels): binds to the receptors of the slow Ca^2+ channel | IC50 (type L calcium channels; [3H] PN 200-110, read-out: K0.5 (50% of specifically fixed radioactivity displaced)): 1 µM | inhibition of Ca2+ influx (in words) (type L Ca^2+ channel): inhibition of the influx of Ca^2+ | IC50 (type L Ca^2+ channel; 45Ca2+ influx, A7 r5 cells, read-out: K0.5 (50% of 45Ca2+ influx inhibited)): 3 µM | IC50 (5HT1A): 3 µM | IC50 (5HT2): 1 µM | IC50 (Alpha adrenergic α1): 2 µM | IC50 (Alpha adrenergic α2): 0.9 µM | IC50 (Dopamine D1): 0.3 µM | IC50 (Dopamine D2): 0.3 µM | activity at 0.3 µM (cardiac cells; Rattus norvegicus, Cardiomyocyte, 0.3 μM, control after acidosis alone 100%, before acidosis 0%, mean ±SD, read-out: amplitude of the necrosis induced by the acidosis): 144% | activity at 1 µM (cardiac cells; Rattus norvegicus, Cardiomyocyte, 1 μM, control after acidosis alone 100%, mean ±SD, read-out: amplitude of the necrosis induced by the acidosis): 21.9% | activity at 3 µM (cardiac cells; Rattus norvegicus, Cardiomyocyte, 3 μM, control after acidosis alone 100%, mean ±SD, read-out: amplitude of the necrosis induced by the acidosis): 1.42% | activity at 10 µM (cardiac cells; Rattus norvegicus, Cardiomyocyte, 10 μM, control after acidosis alone 100%, mean ±SD, read-out: amplitude of the necrosis induced by the acidosis): 2.14% | activity at 30 µM (cardiac cells; Rattus norvegicus, Cardiomyocyte, 30 μM, control after acidosis alone 100%, mean ±SD, read-out: amplitude of the necrosis induced by the acidosis): 9.68% | minimal effective concentration (cardiac cells; Rattus norvegicus, 1 μM and above, read-out: concentration at which protection occurs): ≥ 1 µM | protection of cells with respect to intracellular acidosis (in words) (cardiac cells; in vitro): protects the cardiac cell from necrosis induced by intracellular acidosis | inhibition of slow calcium channels / Ca2+ entry flow (in words) (slow calcium channels): inhibition of the Ca^2+ entry flow in a dose-dependent manner | EC50 (slow calcium channels; whole cell patch clamp, A7 r5, read-out: semi-effect (EC50), inhibition of the slow calcium entry flow): 10 µM | Epicardial ST delta mV (beagle dogs; solvent +6.0): +0.5 mV | Contractility delta % (beagle dogs; solvent -62.6): -42.2% | interaction with neurotransmitter receptors (in words) [1]: interacts in a relatively non-specific manner and with low affinity with neurotransmitter receptors (5HT, α,β) with the exception of the dopaminergic receptors
